Starred links: 1 amine or outer side, 2 acyl side, 3 side chain; linkers in the order of their positions; H or OH if unused. Positions of bridges follow the written chain, without caps; N, C: chain ends. Non-standard residues stand in square brackets, D forms with d. Residues, ends and D or L forms follow the SMILES beside them. Groups on a side chain read outwards from the residue. *: point of attachment. Ala(piperidin-4-yl) = O=C([C@H](CC1CCN([*:3])CC1)N[*:1])[*:2]; DOTA = O=C(O)CN1CCN(CC(=O)O)CCN(CC(=O)*)CCN(CC(=O)O)CC1; Phe(4-COOH) = N[C@@H](Cc1ccc(C(=O)O)cc1)C(=O)O; Trp(5-F) = N[C@@H](Cc1c[nH]c2ccc(F)cc12)C(=O)O; X1 = C[C@@H](c1ccccc1)[C@H](N[*:1])C(=O)[*:2]; X17 = CN1CCC(C[C@H](N[*:1])C(=O)[*:2])CC1; Phe(4-F) = N[C@@H](Cc1ccc(F)cc1)C(=O)O; γGlu = O=C(O)[C@H](CCC(=O)[*:2])N[*:1]; 1Nal = N[C@@H](Cc1cccc2ccccc12)C(=O)O; Ala(4-THP) = N[C@@H](CC1CCOCC1)C(=O)O; Val(3-OH) = CC(C)(O)[C@H](N)C(=O)O; cisHyp = O=C(O)[C@@H]1C[C@H](O)CN1; Cya = N[C@@H](CS(=O)(=O)O)C(=O)O; 4Pal = N[C@@H](Cc1ccncc1)C(=O)O; Chg = N[C@H](C(=O)O)C1CCCCC1; PEG4 = NCCOCCOCCOCCOCCC(=O)O; Tle = CC(C)(C)[C@H](N)C(=O)O; hLeu = CC(C)CC[C@H](N)C(=O)O; NMeS = CN[C@@H](CO)C(=O)O Bounds are passed on as bounds.

In this assay the target is T1, human 4lg B7-H3 (Homo sapiens, UniProt Q5ZPR3).
T1 sequence (Q5ZPR3 29-534): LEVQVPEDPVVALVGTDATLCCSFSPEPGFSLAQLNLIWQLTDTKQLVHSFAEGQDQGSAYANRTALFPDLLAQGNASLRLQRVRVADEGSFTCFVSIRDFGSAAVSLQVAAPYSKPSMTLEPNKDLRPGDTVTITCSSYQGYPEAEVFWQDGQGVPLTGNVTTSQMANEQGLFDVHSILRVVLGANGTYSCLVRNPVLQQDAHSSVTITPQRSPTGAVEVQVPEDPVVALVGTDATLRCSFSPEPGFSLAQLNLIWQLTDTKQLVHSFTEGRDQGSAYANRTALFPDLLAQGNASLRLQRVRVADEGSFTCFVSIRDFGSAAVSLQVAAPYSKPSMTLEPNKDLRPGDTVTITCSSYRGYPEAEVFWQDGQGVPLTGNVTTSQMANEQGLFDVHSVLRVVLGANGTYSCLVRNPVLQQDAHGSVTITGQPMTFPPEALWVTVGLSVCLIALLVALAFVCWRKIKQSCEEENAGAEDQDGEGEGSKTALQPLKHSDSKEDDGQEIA
The experiment in a line: Affinity determination by surface plasmon resonance (SPR) to 4Ig B7-H3. The conditions noted are these: 4Ig B7-H3. For orientation: SPR reads the build-up and loss of mass on a sensor chip optically.

[1] abbreviates: SPR KD—25° C., 25° C. flow cell temperature.
Where [2] appears, read: SPR KD—37° C., 37° C. flow cell temperature.

As a reminder, the Kd is a measure of binding affinity in units of concentration. Lower therefore signals higher affinity. `CC(=O)N[C@@H](CCC(C)C)C(=O)N[C@@H](Cc1ccc(O)cc1)C(=O)N[C@H]1CSSC[C@@H](C(=O)N[C@@H](Cc2c[nH]c3ccc(F)cc23)C(=O)N[C@@H](Cc2ccccc2)C(=O)N(C)[C@@H](CO)C(N)=O)NC(=O)[C@H](Cc2ccc(O)cc2)NC(=O)[C@H](C(C)C)NC(=O)[C@H](CC(=O)O)NC(=O)[C@H](Cc2ccncc2)NC(=O)[C@H](CCCCNC(=O)CN2CCN(CC(=O)O)CCN(CC(=O)O)CCN(CC(=O)O)CC2)NC(=O)CNC(=O)[C@H](C(C)C)NC1=O` [compound 228, Ac-hLeu-Y-C-V-G-Lys(DOTA)-4PyA-D-V-Y-C-5FW-F-NMeSer-CONH2] (Ac-[hLeu]YCVGK(DOTA)[4Pal]DVYC[Trp(5-F)]F[NMeS]-NH2; disulfide 3-11) gave a dissociation constant Kd under setting [1] of 1 to 10 nM.

`CC(=O)N[C@@H](CCC(C)C)C(=O)N[C@@H](Cc1ccc(O)cc1)C(=O)N[C@H]1CSSC[C@@H](C(=O)N[C@@H](Cc2cccc3ccccc23)C(=O)N[C@@H](Cc2ccccc2)C(=O)N[C@H](C(=O)N[C@H](C)C(=O)O)C(C)(C)O)NC(=O)[C@H](Cc2ccc(O)cc2)NC(=O)[C@H](C(C)C)NC(=O)[C@H](CC(=O)O)NC(=O)[C@H](CC2CCN(C(=O)CCOCCOCCOCCOCCNC(=O)CN3CCN(CC(=O)O)CCN(CC(=O)O)CCN(CC(=O)O)CC3)CC2)NC(=O)[C@H](CC2CCNCC2)NC(=O)CNC(=O)[C@H](C(C)(C)C)NC1=O` [compound 453, Ac-hLeu-Y-C-Tbg-G-PipAla-Pip(PEG4-DOTA)Ala-D-V-Y-C-1Nal-F-hydroxyVal-dAla-COOH] (Ac-[hLeu]YC[Tle]G[Ala(piperidin-4-yl)][Ala(piperidin-4-yl)]([PEG4-DOTA])DVYC[1Nal]F[Val(3-OH)][dA]-OH; disulfide 3-11): under setting [2], the Kd is under 1 nM.

In the case of `CC(=O)NCCCC[C@@H]1NC(=O)CNC(=O)[C@H](C(C)(C)C)NC(=O)[C@@H](NC(=O)[C@H](Cc2ccc(O)cc2)NC(=O)[C@H](CCC(C)C)NC(C)=O)CSSC[C@@H](C(=O)N[C@@H](Cc2c[nH]c3ccc(F)cc23)C(=O)N[C@H](C(=O)N[C@H](C(=O)N[C@H](C)C(=O)O)C(C)(C)O)[C@@H](C)c2ccccc2)NC(=O)[C@H](Cc2ccc(O)cc2)NC(=O)[C@H](C(C)C)NC(=O)[C@H](CC(=O)O)NC(=O)[C@H](CC2CCN(C(=O)CCOCCOCCOCCOCCNC(=O)CN3CCN(CC(=O)O)CCN(CC(=O)O)CCN(CC(=O)O)CC3)CC2)NC1=O` [compound 512, Ac-hLeu-Y-C-Tbg-G-Lys(Ac)-Pip(PEG4-DOTA)Ala-D-V-Y-C-5FW-[(2S, 3S)beta-Me-Phe]-hydroxyVal-dAla-COOH] (Ac-[hLeu]YC[Tle]GK(Ac)[Ala(piperidin-4-yl)]([PEG4-DOTA])DVYC[Trp(5-F)][X1][Val(3-OH)][dA]-OH; disulfide 3-11), the dissociation constant Kd under setting [2] is under 1 nM.

Under setting [1], `CC(=O)N[C@@H](CCC(C)C)C(=O)N[C@@H](Cc1ccc(O)cc1)C(=O)N[C@H]1CSSC[C@@H](C(=O)N[C@@H](Cc2c[nH]c3ccc(F)cc23)C(=O)N[C@@H](Cc2ccc(C(=O)O)cc2)C(=O)N[C@H](C(=O)N[C@H](CCCCNC(=O)CN2CCN(CC(=O)O)CCN(CC(=O)O)CCN(CC(=O)O)CC2)C(N)=O)[C@@H](C)O)NC(=O)[C@H](Cc2ccc(O)cc2)NC(=O)[C@H](C(C)C)NC(=O)[C@H](CC(=O)O)NC(=O)[C@H](Cc2ccc(O)cc2)NC(=O)[C@H](CCCCN)NC(=O)CNC(=O)[C@H](C(C)C)NC1=O` [compound 166, Ac-hLeu-Y-C-V-G-K-Y-D-V-Y-C-5FW-4COOHPhe-Thr-dLys(DOTA)-CONH2] (Ac-[hLeu]YCVGKYDVYC[Trp(5-F)][Phe(4-COOH)]T[dK](DOTA)-NH2; disulfide 3-11) had an equilibrium dissociation constant (Kd) of 10 to 100 nM.

The compound `CC(=O)N[C@@H](CCC(C)C)C(=O)N[C@@H](Cc1ccc(O)cc1)C(=O)N[C@H]1CSSC[C@@H](C(=O)N[C@@H](Cc2c[nH]c3ccc(F)cc23)C(=O)N[C@@H](Cc2ccccc2)C(=O)N2CCC[C@H]2C(=O)N[C@H](CCCCNC(=O)CN2CCN(CC(=O)O)CCN(CC(=O)O)CCN(CC(=O)O)CC2)C(=O)O)NC(=O)[C@H](Cc2ccc(O)cc2)NC(=O)[C@H](C(C)C)NC(=O)[C@H](CC(=O)O)NC(=O)[C@H](Cc2ccc(C(=O)O)cc2)NC(=O)[C@H](CC2CCNCC2)NC(=O)CNC(=O)[C@H](C(C)C)NC1=O` [compound 313, Ac-hLeu-Y-C-V-G-PipAla-4COOHPhe-D-V-Y-C-5FW-F-Pro-dLys(DOTA)-COOH] (Ac-[hLeu]YCVG[Ala(piperidin-4-yl)][Phe(4-COOH)]DVYC[Trp(5-F)]FP[dK](DOTA)-OH; disulfide 3-11) came in with a Kd under setting [2] of under 1 nM.

Turning to `CC(C)CC[C@H](NC(=O)CC[C@H](NC(=O)CC[C@H](NC(=O)CC[C@H](NC(=O)CN1CCN(CC(=O)O)CCN(CC(=O)O)CCN(CC(=O)O)CC1)C(=O)O)C(=O)O)C(=O)O)C(=O)N[C@@H](Cc1ccc(F)cc1)C(=O)N[C@H]1CSSC[C@@H](C(=O)N[C@@H](Cc2cccc3ccccc23)C(=O)N[C@@H](Cc2ccccc2)C(=O)N2CCC[C@H]2C(N)=O)NC(=O)[C@H](Cc2ccc(O)cc2)NC(=O)[C@H](C(C)C)NC(=O)[C@H](CC(=O)O)NC(=O)[C@H](CC2CCOCC2)NC(=O)[C@H](CC2CCNCC2)NC(=O)CNC(=O)[C@H](C(C)(C)C)NC1=O` [compound 272, DOTA-gE-gE-gE-hLeu-4FPhe-C-Tbg-G-PipAla-ThpA-D-V-Y-C-1Nal-F-Pro-CONH2] ({DOTA-γGlu-γGlu-γGlu}-[hLeu][Phe(4-F)]C[Tle]G[Ala(piperidin-4-yl)][Ala(4-THP)]DVYC[1Nal]FP-NH2; disulfide 3-11), under setting [1], the dissociation constant (Kd) was 100 to 300 nM.

`CC(=O)N[C@@H](CCC(C)C)C(=O)N[C@@H](Cc1ccc(O)cc1)C(=O)N[C@H]1CSSC[C@@H](C(=O)N[C@@H](Cc2c[nH]c3ccc(F)cc23)C(=O)N[C@H](C(=O)N[C@H](C(=O)N[C@H](CCCCNC(=O)CN2CCN(CC(=O)O)CCN(CC(=O)O)CCN(CC(=O)O)CC2)C(=O)O)C(C)(C)O)[C@@H](C)c2ccccc2)NC(=O)[C@H](Cc2ccc(O)cc2)NC(=O)[C@H](C(C)C)NC(=O)[C@H](CS(=O)(=O)O)NC(=O)[C@H](CC2CCOCC2)NC(=O)[C@H](CC2CCNCC2)NC(=O)CNC(=O)[C@H](C(C)(C)C)NC1=O` [compound 524, Ac-hLeu-Y-C-Tbg-G-PipAla-ThpA-CysAcid-V-Y-C-5FW-[(2S, 3S)beta-Me-Phe]-hydroxyVal-dLys(DOTA)-COOH] (Ac-[hLeu]YC[Tle]G[Ala(piperidin-4-yl)][Ala(4-THP)][Cya]VYC[Trp(5-F)][X1][Val(3-OH)][dK](DOTA)-OH; disulfide 3-11): under setting [2], the equilibrium dissociation constant (Kd) was under 1 nM.

In the case of `CC(=O)N[C@@H](CCC(C)C)C(=O)N[C@@H](Cc1ccc(O)cc1)C(=O)N[C@H]1CSSC[C@@H](C(=O)N[C@@H](Cc2c[nH]c3ccccc23)C(=O)N[C@@H](Cc2ccccc2)C(=O)N[C@H](C(=O)N[C@H](CCCCNC(=O)CN2CCN(CC(=O)O)CCN(CC(=O)O)CCN(CC(=O)O)CC2)C(N)=O)[C@@H](C)O)NC(=O)[C@H](Cc2ccc(O)cc2)NC(=O)[C@H](C2CCCCC2)NC(=O)[C@H](CC(=O)O)NC(=O)[C@H](Cc2ccc(O)cc2)NC(=O)[C@H](CCCCN)NC(=O)CNC(=O)[C@H](C(C)(C)C)NC1=O` [compound 216, Ac-hLeu-Y-C-Tbg-G-K-Y-D-ChG-Y-C-W-F-Thr-dLys(DOTA)-CONH2] (Ac-[hLeu]YC[Tle]GKYD[Chg]YCWFT[dK](DOTA)-NH2; disulfide 3-11), the Kd under setting [1] was under 1 nM.

`CC(=O)N[C@@H](CCC(C)C)C(=O)N[C@@H](Cc1ccc(O)cc1)C(=O)N[C@H]1CSSC[C@@H](C(=O)N[C@@H](Cc2cccc3ccccc23)C(=O)N[C@@H](Cc2ccccc2)C(=O)N2C[C@@H](O)C[C@H]2C(N)=O)NC(=O)[C@H](Cc2ccc(O)cc2)NC(=O)[C@H](C(C)C)NC(=O)[C@H](CC(=O)O)NC(=O)[C@H](Cc2ccncc2)NC(=O)[C@H](CCCCNC(=O)CN2CCN(CC(=O)O)CCN(CC(=O)O)CCN(CC(=O)O)CC2)NC(=O)CNC(=O)[C@H](C(C)(C)C)NC1=O` [compound 250, Ac-hLeu-Y-C-Tbg-G-Lys(DOTA)-4PyA-D-V-Y-C-1Nal-F-(cisHyp)-CONH2] (Ac-[hLeu]YC[Tle]GK(DOTA)[4Pal]DVYC[1Nal]F[cisHyp]-NH2; disulfide 3-11) showed a Kd under setting [1] of 10 to 100 nM.

As to `CC(=O)N[C@@H](CCC(C)C)C(=O)N[C@@H](Cc1ccc(O)cc1)C(=O)N[C@H]1CSSC[C@@H](C(=O)N[C@@H](Cc2c[nH]c3ccc(F)cc23)C(=O)N[C@H](C(=O)N[C@H](C(=O)N[C@H](C)C(=O)O)C(C)(C)O)[C@@H](C)c2ccccc2)NC(=O)[C@H](Cc2ccc(O)cc2)NC(=O)[C@H](C(C)C)NC(=O)[C@H](CC(=O)O)NC(=O)[C@H](CC2CCN(C(=O)CCOCCOCCOCCOCCNC(=O)CN3CCN(CC(=O)O)CCN(CC(=O)O)CCN(CC(=O)O)CC3)CC2)NC(=O)[C@H](CC2CCN(C)CC2)NC(=O)CNC(=O)[C@H](C(C)(C)C)NC1=O` [compound 520, Ac-hLeu-Y-C-Tbg-G-Pip(Me)Ala-Pip(PEG4-DOTA)Ala-D-V-Y-C-5FW-[(2S, 3S)beta-Me-Phe]-hydroxyVal-dAla-COOH] (Ac-[hLeu]YC[Tle]G[X17][Ala(piperidin-4-yl)]([PEG4-DOTA])DVYC[Trp(5-F)][X1][Val(3-OH)][dA]-OH; disulfide 3-11), under setting [2], the Kd was under 1 nM.

The values are drawn from patent publication US20250296959A1, “B7-H3 TARGETING PEPTIDES AND CONSTRUCTS THEREOF” (Mariana Oncology Inc., priority 2024, published 2025).
